According to ChEMBL document CHEMBL3272295, “Drugs derived from cannabinoids. 5. delta6a,10a-Tetrahydrocannabinol and heterocyclic analogs containing aromatic side chains” (J Med Chem, 1976):

Assays:
Rattus norvegicus [1] = test: (§1) Antidiarrheal activity in Charles River rat assessed as inhibition of castor oil-induced diarrhea by measuring protected animals at 0.1 mg/kg, po administered 1 hr prior to castor oil challenge measured after 1 hr relative to vehicle-treated control; type: functional
Rattus norvegicus [2] = test: Antidiarrheal activity in Charles River rat assessed as inhibition of castor oil-induced diarrhea by measuring protected animals at 0.8 mg/kg, po administered 1 hr prior to castor oil challenge measured after 1 hr relative to vehicle-treated control; type: functional
Mus musculus [3] = test: Analgesic activity in po dosed mouse assessed as inhibition of acetic acid-induced writhing administered 30 mins prior to acetic acid challenge measured after 5 mins for 20 mins; type: functional
Rhesus monkey = test: Antianxiety activity in po dosed rhesus monkey assessed as antiagressive behavior measured every hour post dosing; type: functional; conditions: Macaca mulatta, read-out: MED
Rattus norvegicus [4] = test: Antipsychotic activity in rat assessed as reduction of methamphetamine-induced hyperactivity at 5 mg/kg, po administered prior to methamphetamine challenge relative to vehicle-treated control; type: functional; design: scale not given: the % may be the effect or the level left
Rattus norvegicus [5] = test: Analgesic activity in po dosed Sprague-Dawley rat after 15 to 90 mins by tail flick test; type: functional
Canis familiaris = test: Antianxiety activity in po dosed dog assessed as ataxia administered as single dose measured up to 24 hrs; type: functional; conditions: Canis lupus familiaris, read-out: MED
Rattus norvegicus [6] = test: Antipsychotic activity in rat assessed as reduction of methamphetamine-induced hyperactivity at 2.5 mg/kg, po administered prior to methamphetamine challenge relative to vehicle-treated control; type: functional; design: scale not given: the % may be the effect or the level left
Mus musculus [7] = test: Antianxiety activity in albino BALB/cJ mouse assessed as reduction in footshock-induced fighting behavior at 10 mg/kg, po after 30 to 90 mins; type: functional; design: scale not given: the % may be the effect or the level left
Rattus norvegicus [8] = test: Antianxiety activity in Long-Evans rat assessed as reduction in motor activity at 1 mg/kg, po after 2 hrs relative to vehicle-treated control; type: functional; design: scale not given: the % may be the effect or the level left
Rattus norvegicus [9] = test: Antihypertensive activity in spontaneously hypertensive rat model assessed as reduction in blood pressure at 5 mg/kg, po after 24 hrs; type: functional; design: scale not given: the % may be the effect or the level left
Felis catus [10] = test: Hypnotic activity in cat assessed as increase in non-REM sleep time at 0.5 mg/kg administered orally through diet measured for 12 hrs by EEG analysis; type: functional; conditions: route oral
Felis catus [11] = test: Hypnotic activity in cat assessed as increase in total sleep time at 0.5 mg/kg administered orally through diet measured for 12 hrs by EEG analysis; type: functional; conditions: route oral
[12] = Acute toxicity in po dosed mouse; type: organism-based; conditions: in vivo
Rattus norvegicus [13] = test: Antianxiety activity in Long-Evans rat assessed as reduction in motor activity at 10 mg/kg, po after 2 hrs relative to vehicle-treated control; type: functional; design: scale not given: the % may be the effect or the level left
Rattus norvegicus [14] = test: Antidiarrheal activity in Charles River rat assessed as inhibition of castor oil-induced diarrhea by measuring protected animals at 0.4 mg/kg, po administered 1 hr prior to castor oil challenge measured after 1 hr relative to vehicle-treated control; type: functional
Rattus norvegicus [15] = test: Antihypertensive activity in spontaneously hypertensive rat model assessed as reduction in blood pressure at 5 mg/kg, po after 3 hrs; type: functional; design: scale not given: the % may be the effect or the level left
Rattus norvegicus [16] = test: Antianxiety activity in Long-Evans rat assessed as reduction in motor activity at 5 mg/kg, po after 2 hrs relative to vehicle-treated control; type: functional; design: scale not given: the % may be the effect or the level left
Rattus norvegicus [17] = test: as §1, with “0.2” for “0.1”, “po administered for 5 days followed by 0.2 mg/kg, po on test day” for “po”; type: functional
Mus musculus [18] = test: Antianxiety activity in albino BALB/cJ mouse assessed as reduction in footshock-induced fighting behavior at 1 mg/kg, po after 30 to 90 mins; type: functional; design: scale not given: the % may be the effect or the level left
Felis catus [19] = test: Hypnotic activity in cat assessed as decrease in total sleep time at 0.5 mg/kg administered orally through diet measured for 12 hrs by EEG analysis; type: functional; conditions: route oral
Felis catus [20] = test: Hypnotic activity in cat assessed as increase in total sleep time at 2 mg/kg administered orally through diet measured for 12 hrs by EEG analysis; type: functional; conditions: route oral
Rattus norvegicus [21] = test: Antihypertensive activity in spontaneously hypertensive rat model assessed as reduction in blood pressure at 0.3 mg/kg, po after 3 hrs; type: functional; design: scale not given: the % may be the effect or the level left
Mus musculus [22] = test: Antianxiety activity in albino BALB/cJ mouse assessed as reduction in footshock-induced fighting behavior at 5 mg/kg, po after 30 to 90 mins; type: functional; design: scale not given: the % may be the effect or the level left
Rattus norvegicus [23] = test: Antisecretory activity in Sprague-Dawley rat assessed as decrease in volume at 50 mg/kg, po administered 30 mins prior to pylorus ligation measured after 4 hrs relative to control; type: functional; design: scale not given: the % may be the effect or the level left
Felis catus [24] = test: Hypnotic activity in cat assessed as increase in non-REM sleep time at 2 mg/kg administered orally through diet measured for 12 hrs by EEG analysis; type: functional; conditions: route oral
Rattus norvegicus [25] = species: Rattus norvegicus; test: animal or person; type: functional; conditions: Charles River, route oral
Description: Antidiarrheal activity in Charles River rat assessed as inhibition of castor oil-induced diarrhea by measuring protected animals at 0.5 mg/kg, po administered 1 hr prior to castor oil challenge measured after 1 hr relative to vehicle-treated control

Rattus norvegicus [26] = test: Antihypertensive activity in spontaneously hypertensive rat model assessed as reduction in blood pressure at 0.3 mg/kg, po after 24 hrs; type: functional; design: scale not given: the % may be the effect or the level left
Mus musculus [27] = test: Anticonvulsant activity in po dosed mouse assessed as dose required to protect 80% of animal measured after 1 to 4 hrs by audiogenic seizure test; type: functional
Rattus norvegicus [28] = test: Antisecretory activity in Sprague-Dawley rat assessed as decrease in acidity at 50 mg/kg, po administered 30 mins prior to pylorus ligation measured after 4 hrs relative to control; type: functional; design: scale not given: the % may be the effect or the level left
Felis catus [29] = test: Hypnotic activity in cat assessed as decrease in non-REM sleep time at 0.5 mg/kg administered orally through diet measured for 12 hrs by EEG analysis; type: functional; conditions: route oral
Rattus norvegicus [30] = test: Antipsychotic activity in rat assessed as reduction of methamphetamine-induced hyperactivity at 0.5 mg/kg, po administered prior to methamphetamine challenge relative to vehicle-treated control; type: functional; design: scale not given: the % may be the effect or the level left
Rattus norvegicus [31] = test: Antisecretory activity in Sprague-Dawley rat assessed as decrease in acid output at 50 mg/kg, po administered 30 mins prior to pylorus ligation measured after 4 hrs relative to control; type: functional; design: scale not given: the % may be the effect or the level left
Rattus norvegicus [32] = test: Antisecretory activity in Sprague-Dawley rat assessed as decrease in pepsin output at 50 mg/kg, po administered 30 mins prior to pylorus ligation measured after 4 hrs relative to control; type: functional; design: scale not given: the % may be the effect or the level left
Rattus norvegicus [33] = test: as §1, with “0.5” for “0.1”, “po administered for 2 days followed by 1 mg/kg, po on test day” for “po”; type: functional
Rattus norvegicus [34] = test: as §1, with “0.5” for “0.1”, “po administered for 2 days followed by 0.5 mg/kg, po on test day” for “po”; type: functional
Rattus norvegicus [35] = test: Antidiarrheal activity in Charles River rat assessed as inhibition of castor oil-induced diarrhea by measuring protected animals at 0.05 mg/kg, po administered 1 hr prior to castor oil challenge measured after 1 hr relative to vehicle-treated control; type: functional
Mus musculus [36] = test: Antidepressant activity in po dosed mouse assessed as potentiation of DOPA-induced effect administered 4 hrs prior to DOPA challenge; type: functional; conditions: read-out: MED
Rattus norvegicus [37] = test: Antisecretory activity in Sprague-Dawley rat assessed as decrease in pepsin concentration at 50 mg/kg, po administered 30 mins prior to pylorus ligation measured after 4 hrs relative to control; type: functional; design: scale not given: the % may be the effect or the level left
Mus musculus [38] = test: Increase in footshock-induced fighting behavior in albino BALB/cJ mouse at 10 mg/kg, po after 30 to 90 mins; type: functional
Rattus norvegicus [39] = test: Antipsychotic activity in rat assessed as reduction of methamphetamine-induced hyperactivity at 2 mg/kg, po administered prior to methamphetamine challenge relative to vehicle-treated control; type: functional; design: scale not given: the % may be the effect or the level left
Rattus norvegicus [40] = species: Rattus norvegicus; test: animal or person; conditions: Charles River, po, read-out: INH
Description: Antidiarrheal activity in Charles River rat assessed as inhibition of castor oil-induced diarrhea by measuring protected animals at 2 mg/kg, po administered 1 hr prior to castor oil challenge measured after 1 hr relative to vehicle-treated control

Rattus norvegicus [41] = species: Rattus norvegicus; test: animal or person; type: functional; conditions: Charles River, route oral; remark: listed apart in the source
Description: Antidiarrheal activity in Charles River rat assessed as inhibition of castor oil-induced diarrhea by measuring protected animals at 1 mg/kg, po administered 1 hr prior to castor oil challenge measured after 1 hr relative to vehicle-treated control

Rattus norvegicus [42] = test: Antihypertensive activity in spontaneously hypertensive rat model assessed as reduction in blood pressure at 1 mg/kg, po after 24 hrs; type: functional; design: scale not given: the % may be the effect or the level left
Rattus norvegicus [43] = test: Antidiarrheal activity in Charles River rat assessed as inhibition of castor oil-induced diarrhea by measuring protected animals at 0.2 mg/kg, po administered 1 hr prior to castor oil challenge measured after 1 hr relative to vehicle-treated control; type: functional
Rattus norvegicus [44] = test: as §1, with “0.5” for “0.1”, “po administered for 5 days followed by 0.5 mg/kg, po on test day” for “po”; type: functional
Rattus norvegicus [45] = test: Antihypertensive activity in spontaneously hypertensive rat model assessed as reduction in blood pressure at 1 mg/kg, po after 3 hrs; type: functional; design: scale not given: the % may be the effect or the level left

| SMILES | inhibition in vivo at 0.1 mg/kg (Rattus norvegicus [1]) | ED50 (Mus musculus [3]) | minimal effective dose (Rhesus monkey) | Activity (Rattus norvegicus [4]) | ED50 (Rattus norvegicus [5]) | minimal effective dose (Canis familiaris) | LD50 [12] | Activity (Rattus norvegicus [16]) | Activity (Rattus norvegicus [21]) | Activity (Mus musculus [22]) | Activity (Rattus norvegicus [23]) | inhibition in vivo at 0.5 mg/kg (Rattus norvegicus [25]) | Activity (Rattus norvegicus [26]) | Activity (Rattus norvegicus [28]) | Activity (Rattus norvegicus [30]) | Activity (Rattus norvegicus [31]) | Activity (Rattus norvegicus [32]) | inhibition (INH) (Rattus norvegicus [33]) | inhibition in vivo at 0.5 mg/kg (Rattus norvegicus [34]) | inhibition in vivo at 0.05 mg/kg (Rattus norvegicus [35]) | further results |
| --- | --- | --- | --- | --- | --- | --- | --- | --- | --- | --- | --- | --- | --- | --- | --- | --- | --- | --- | --- | --- | --- |
| CC1CCC2=C(C1)c1c(OC(=O)CCCN3CCCCC3)cc(C(C)CCCc3ccc(F)cc3)cc1OC2(C)C.Cl (centres undefined) | 10% | 1.76 mg/kg | 1 mg/kg | 75% | 1.46 mg/kg | 0.2 mg/kg | ≥ 1000 mg/kg | 72% | – | – | – | – | – | – | – | – | – | – | – | – | inhibition in vivo at 0.8 mg/kg (Rattus norvegicus [2]): 90%; Activity (Rattus norvegicus [6]): 50%; Activity (Mus musculus [7]): 73%; Activity (Rattus norvegicus [8]): 38%; Activity (Rattus norvegicus [9]): 19%; Time (Felis catus [10]): 73 min; Time (Felis catus [11]): 50 min; Activity (Rattus norvegicus [13]): 95%; inhibition in vivo at 0.4 mg/kg (Rattus norvegicus [14]): 70%; Activity (Rattus norvegicus [15]): 25% |
| CCOC(=O)C1(c2ccccc2)CCN(CCC(C#N)(c2ccccc2)c2ccccc2)CC1 [DIPHENOXYLATE] | – | – | – | – | – | – | – | – | – | – | – | – | – | – | – | – | – | – | – | – | inhibition in vivo at 0.2 mg/kg (Rattus norvegicus [17]): 90% |
| CC1CCC2=C(C1)c1c(O)cc(C(C)CCCc3ccc(F)cc3)cc1OC2(C)C (centres undefined) | 50% | 8.3 mg/kg | 0.1 mg/kg | – | 5.9 mg/kg | 0.5 mg/kg | ≥ 1000 mg/kg | 90% | 31% | 92% | 35.5% | 70% | 12% | 7.8% | 30% | 39.6% | 43.7% | 0% | 0% | 0% | Activity (Mus musculus [18]): 60%; Time (Felis catus [19]): -22 min; Time (Felis catus [20]): 126 min; Time (Felis catus [24]): 94 min; Activity (Mus musculus [27]): 30 mg/kg; Time (Felis catus [29]): -4 min; minimal effective dose (Mus musculus [36]): 10 mg/kg; Activity (Rattus norvegicus [37]): 11.4%; Activity (Mus musculus [38]): 26%; Activity (Rattus norvegicus [39]): 70% |
| CN1CC[C@]23c4c5ccc(O)c4O[C@H]2[C@@H](O)C=C[C@H]3[C@H]1C5 | – | – | – | – | – | – | – | – | – | – | – | 0% | – | – | – | – | – | – | – | – | inhibition in vivo at 2 mg/kg (Rattus norvegicus [40]): 50%; inhibition in vivo at 1 mg/kg (Rattus norvegicus [41]): 30% |
| CC1CCC2=C(C1)c1c(O)cc(C(C)C(C)CCc3ccc(F)cc3)cc1OC2(C)C (centres undefined) | 60% | 4.5 mg/kg | – | 89% | – | 1 mg/kg | 750 mg/kg | 66% | 13% | 0% | 45.6% | – | 10% | 13.4% | 58% | 53.1% | 56.4% | 0% | 0.5% | 40% | Activity (Rattus norvegicus [42]): 12%; inhibition in vivo at 0.2 mg/kg (Rattus norvegicus [43]): 90%; inhibition in vivo at 0.5 mg/kg (Rattus norvegicus [44]): 0%; Activity (Rattus norvegicus [45]): 27%; Activity (Rattus norvegicus [37]): 20.8%; Activity (Rattus norvegicus [39]): 62% |
